From publication PMC6954902 (Protein & Cell, 2019)

How the values were obtained:
MtEccC3-ATPase3 = biological target: T1, MtEccC3-ATPase3 (Mycobacterium tuberculosis, UniProt P9WNA9)
T1 construct: gene eccC3

MtEccC5-ATPase3 = biological target: T2, MtEccC5-ATPase3 (Mycobacterium tuberculosis, UniProt P9WNA5)
T2 construct: gene eccC5

MtEccC2-ATPase3 = biological target: T3, MtEccC2-ATPase3 (Mycobacterium tuberculosis, UniProt O05450)
T3 construct: gene eccC2
T3 sequence (O05450 1127-1396 limits assumed): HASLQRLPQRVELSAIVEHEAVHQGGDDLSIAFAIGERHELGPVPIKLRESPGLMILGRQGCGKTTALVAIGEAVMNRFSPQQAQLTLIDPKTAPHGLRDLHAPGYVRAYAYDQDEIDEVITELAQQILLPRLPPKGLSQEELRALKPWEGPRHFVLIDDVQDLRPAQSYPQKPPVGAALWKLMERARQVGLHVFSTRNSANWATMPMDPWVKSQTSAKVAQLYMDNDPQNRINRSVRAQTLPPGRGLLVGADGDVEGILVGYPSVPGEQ

T2 sequence (P9WNA5 1125-1391): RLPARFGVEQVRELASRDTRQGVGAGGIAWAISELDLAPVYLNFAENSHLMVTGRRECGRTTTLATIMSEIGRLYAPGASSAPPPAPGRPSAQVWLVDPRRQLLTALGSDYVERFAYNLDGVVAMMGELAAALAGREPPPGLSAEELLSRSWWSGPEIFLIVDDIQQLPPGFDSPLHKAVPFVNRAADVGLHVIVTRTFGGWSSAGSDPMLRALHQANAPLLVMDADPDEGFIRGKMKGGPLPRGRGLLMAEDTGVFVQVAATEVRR
T1 sequence (P9WNA9 1060-1330): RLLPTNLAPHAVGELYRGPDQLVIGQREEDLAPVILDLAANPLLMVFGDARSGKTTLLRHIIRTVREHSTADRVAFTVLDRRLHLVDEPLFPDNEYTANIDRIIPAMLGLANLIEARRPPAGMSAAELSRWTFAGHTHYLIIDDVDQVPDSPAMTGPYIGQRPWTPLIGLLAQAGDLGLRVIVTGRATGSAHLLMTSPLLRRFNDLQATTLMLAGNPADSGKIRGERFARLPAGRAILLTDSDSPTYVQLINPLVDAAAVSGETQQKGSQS

**Q.** `Nc1ncnc2c1ncn2[C@@H]1O[C@H](COP(=O)(O)OP(=O)(O)OP(=O)(O)O)[C@@H](O)[C@H]1O` [ATP] was tested. Which X-ray crystal structure (MtEccC3-ATPase3) did it give?
**A.** Its X-ray crystal structure is “In our structures, ATP and a magnesium ion bind to the nucleotide-binding site”.

**Q.** What about the X-ray crystal structure (MtEccC5-ATPase3) of the same molecule?
**A.** Its X-ray crystal structure is “In our structures, ATP and a magnesium ion bind to the nucleotide-binding site”.

**Q.** What about the X-ray crystal structure (MtEccC2-ATPase3) of the same molecule?
**A.** The X-ray crystal structure was “In our structures, ATP and a magnesium ion bind to the nucleotide-binding site”.
